In patent publication US4451650A, “Pyrido[4,3-b][1,4]oxazines and pyrido[4,3-b][1,4]thiazines” (Southern Research Institute, priority 1982, dated 1984) one finds ILS, IC50 and EC (mitotic index 0.5) data, which are given here for 17 molecules.

Structures are written as SMILES. Bounds are passed on as bounds.

The test system of experiment [1] is Lymphocytic leukemia P388. Description: Increase in life span, lymphocytic leukemia P388, 10^6 tumor cell implant, i.p. The experiment is classed as in vivo. The conditions noted are these: Mus musculus, P388, ip, schedule 1-5, read-out: P388 % ILS (increase in life span at the highest nontoxic dose). From the text: ^c Lymphocytic leukemia P388.
^d Increase in life span at the highest nontoxic dose.

Experiment [2] has as its system lymphoid leukemia L1210 cells. Description: Inhibition of proliferation of cultured lymphoid leukemia L1210 cells (48 hours). The experiment is classed as cell-based. The conditions noted are these: read-out: L1210 ID50 (concentration of agent that inhibits proliferation of cultured lymphoid leukemia L1210 cells to 50% control growth during 48 hours). As for the experimental part:
^a Concentration of agent that inhibits proliferation of cultured
lymphoid leukemia L1210 cells to 50% control growth during 48 hours
[Wheeler, G. P., Bowdon, B. J., Werline, J. A., Adamson, D. J., and
Temple, C., Jr., Cancer Research, 1982, 42, 791].

The subject of experiment [3] is lymphoid leukemia L1210 cells. Description: Mitotic index (fraction of cells in mitosis) of cultured lymphoid leukemia L1210 cells, 12 hours exposure. The class given is cell-based. The conditions noted are these: Mus musculus, exposure period of 12 hours, read-out: L1210 MI0.5 (concentration of agent that causes a mitotic index of 0.5). As for the experimental part:
^b Concentration of agent that causes a mitotic index (fraction of
cells in mitosis divided by total cells) of 0.5 for cultured lymphoid
leukemia L1210 cells during an exposure period of 12 hours [Wheeler, G.
P., Bowden, B. J., Werline, J. A., Adamson, D. J., and Temple, C., Jr.,

Broadly, the ILS is how much longer treated animals lived than controls. For `CCOC(=O)Nc1cc2oc(=O)c(-c3ccccc3)nc2c(N)n1` [e], the ILS at 300 mg/kg in experiment [1] was determined as 0%. Further, the IC50 in experiment [2] is greater than 3000 nM.
Consider `CCOC(=O)Nc1cc2c(c(N=CN(C)C)n1)N=C(c1ccccc1)CO2` [p], for which, in experiment [2], the IC50 came out at 310 nM. The EC (mitotic index 0.5) in experiment [3] stood at 0.78 µM.
As for `CCOC(=O)Nc1cc2c(c(N)n1)N=C(c1ccc3ccccc3c1)CS2` [o], in experiment [1], the ILS at 300 mg/kg amounted to 5%. Moreover, the IC50 in experiment [2] came to 580 nM. Also, in experiment [3], the EC (mitotic index 0.5) amounted to 3 µM.
For the molecule `CCOC(=O)Nc1cc2c(c(N)n1)N=C(c1ccccc1)C(c1ccccc1)O2` (stereo not shown) [c], the ILS at 200 mg/kg in experiment [1] stood at 2%. For the same molecule, in experiment [2], the IC50 amounted to 880 nM. Further, the EC (mitotic index 0.5) in experiment [3] was 3 µM.
As for `CCOC(=O)Nc1cc2c(c(N)n1)N=C(c1ccc(Cl)cc1)CO2` [h], the ILS at 300 mg/kg in experiment [1] amounted to 0%. Besides, the IC50 in experiment [2] was greater than 3000 nM.
On to `CCOC(=O)Nc1cc2c(c(N)n1)N=C(c1ccccc1)C(C)S2` (stereo not shown) [k], for which, in experiment [1] (150 mg/kg), the increase in lifespan (ILS) at 150 mg/kg amounted to 10%. Further, the IC50 in experiment [2] was 1600 nM. For the same molecule, the EC (mitotic index 0.5) in experiment [3] was 9.6 µM.
Consider `CCOC(=O)Nc1cc2c(c(N)n1)N=C(c1ccc([N+](=O)[O-])cc1)CO2` [i], for which the ILS at 300 mg/kg in experiment [1] was 0%. Further, in experiment [2], the IC50 is greater than 3000 nM.
For `CCOC(=O)Nc1cc2c(c(N)n1)N=C(c1ccc(OC)cc1)CS2` [n], the ILS at 300 mg/kg in experiment [1] stood at 3%. Moreover, the IC50 in experiment [2] was determined as 340 nM. Also, in experiment [3], the EC (mitotic index 0.5) worked out at 4.9 µM.
Consider `CCOC(=O)Nc1cc2c(c(N)n1)N=C(c1ccccc1)CO2` [a], for which, in experiment [1], the ILS at 100 mg/kg amounted to 44% and the ILS at 200 mg/kg turned out to be 80%. Further, the IC50 in experiment [2] was 225 nM. In addition, the EC (mitotic index 0.5) in experiment [3] was 0.56 µM.
Take `CCOC(=O)Nc1cc2c(c(N)n1)N=C(c1ccccc1)CS2` [j]: the ILS at 300 mg/kg in experiment [1] was found to be 0%. The IC50 in experiment [2] was determined as 6100 nM. Besides, the EC (mitotic index 0.5) in experiment [3] stood at 10 µM.
Regarding `CCOC(=O)Nc1cc2c(c(N)n1)N=C(c1cccc(OC)c1)CS2` [m], the ILS at 75 mg/kg in experiment [1] (75 mg/kg) worked out at 3%. In experiment [2], the IC50 amounted to 530 nM. The EC (mitotic index 0.5) in experiment [3] turned out to be 2 µM.
Consider `CCOC(=O)Nc1cc2c(c(N)n1)N=C(c1cccc(OC)c1)CO2` [f], for which the ILS at 50 mg/kg in experiment [1] (50 mg/kg) was 73%. Further, the IC50 in experiment [2] was determined as 52 nM. In addition, the EC (mitotic index 0.5) in experiment [3] was 0.1 µM.
`CCOC(=O)Nc1cc2c(c(N)n1)N=C(c1ccccc1)C(C)O2` (stereo not shown) [b]: in experiment [1], the ILS at 100 mg/kg was found to be 50%. The IC50 in experiment [2] stood at 110 nM. In addition, the EC (mitotic index 0.5) in experiment [3] came out at 0.49 µM.
For `CCOC(=O)Nc1cc2c(c(NC(=O)CBr)n1)N=C(c1ccccc1)CO2` [q], the IC50 in experiment [2] was determined as 2200 nM. In addition, in experiment [3], the EC (mitotic index 0.5) came out at 11 µM.
On to `CCOC(=O)Nc1cc2c(c(N)n1)N=C1c3ccccc3CCC1O2` (stereo not shown) [d], for which the ILS at 300 mg/kg in experiment [1] came out at 32%. The IC50 in experiment [2] was greater than 300 nM.
Take `CCOC(=O)Nc1cc2c(c(N)n1)N=C(c1cc(OC)c(OC)c(OC)c1)CO2` [g]: the ILS at 300 mg/kg in experiment [1] was 0%. The IC50 in experiment [2] is greater than 3000 nM.
As for `CCOC(=O)Nc1cc2c(c(N)n1)N=C(c1ccccc1)C(C)(C)S2` [l], in experiment [2], the IC50 is greater than 10000 nM.
